Here are results for three compounds from ChEMBL document CHEMBL1128142, “2-aryl-indolyl maleimides - novel and potent inhibitors of protein kinase C” (Bioorg Med Chem Lett, 1995).

One assay relates to MCF7. The assay is described as follows: Inhibition of adriamycin-resistant breast tumor line MCF-7/ADR-RE proliferation. The assay is classed as functional. As to conditions: Homo sapiens.
The next assay deals with MDA-N. Briefly: Inhibition of breast tumor lines(MDA-N) proliferation. The settings on record: Homo sapiens. The assay is classed as functional.
Assay [1] deals with Protein kinase C beta type (Homo sapiens, UniProt P05771). The assay is described as follows: Inhibition of protein kinase C beta.
The target in assay [2] is T1, Protein kinase C epsilon type (Homo sapiens, UniProt Q02156).
T1 sequence (Q02156 whole entry): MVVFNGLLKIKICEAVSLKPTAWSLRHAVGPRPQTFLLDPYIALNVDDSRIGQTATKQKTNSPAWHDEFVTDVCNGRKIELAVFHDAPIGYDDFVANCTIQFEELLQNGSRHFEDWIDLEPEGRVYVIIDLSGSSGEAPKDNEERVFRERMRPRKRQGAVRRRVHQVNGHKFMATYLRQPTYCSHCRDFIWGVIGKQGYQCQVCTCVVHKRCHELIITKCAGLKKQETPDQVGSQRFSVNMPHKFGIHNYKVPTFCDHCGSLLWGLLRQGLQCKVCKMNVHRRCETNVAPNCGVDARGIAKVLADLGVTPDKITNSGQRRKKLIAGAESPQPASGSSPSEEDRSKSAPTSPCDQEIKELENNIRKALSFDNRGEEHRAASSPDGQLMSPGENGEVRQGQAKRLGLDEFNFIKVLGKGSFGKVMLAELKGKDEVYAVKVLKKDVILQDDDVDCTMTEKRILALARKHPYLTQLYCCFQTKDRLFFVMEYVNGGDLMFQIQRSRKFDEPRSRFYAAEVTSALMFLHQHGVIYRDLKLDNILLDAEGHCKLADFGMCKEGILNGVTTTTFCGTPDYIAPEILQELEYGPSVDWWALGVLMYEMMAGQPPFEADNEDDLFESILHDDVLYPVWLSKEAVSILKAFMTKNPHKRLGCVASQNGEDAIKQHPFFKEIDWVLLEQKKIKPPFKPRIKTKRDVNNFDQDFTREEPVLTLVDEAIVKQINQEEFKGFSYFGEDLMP
The assay is described as follows: Inhibition of Protein kinase C epsilon.

Bounds are passed on as bounds.

Sequence of Protein kinase C beta type (P05771 whole entry): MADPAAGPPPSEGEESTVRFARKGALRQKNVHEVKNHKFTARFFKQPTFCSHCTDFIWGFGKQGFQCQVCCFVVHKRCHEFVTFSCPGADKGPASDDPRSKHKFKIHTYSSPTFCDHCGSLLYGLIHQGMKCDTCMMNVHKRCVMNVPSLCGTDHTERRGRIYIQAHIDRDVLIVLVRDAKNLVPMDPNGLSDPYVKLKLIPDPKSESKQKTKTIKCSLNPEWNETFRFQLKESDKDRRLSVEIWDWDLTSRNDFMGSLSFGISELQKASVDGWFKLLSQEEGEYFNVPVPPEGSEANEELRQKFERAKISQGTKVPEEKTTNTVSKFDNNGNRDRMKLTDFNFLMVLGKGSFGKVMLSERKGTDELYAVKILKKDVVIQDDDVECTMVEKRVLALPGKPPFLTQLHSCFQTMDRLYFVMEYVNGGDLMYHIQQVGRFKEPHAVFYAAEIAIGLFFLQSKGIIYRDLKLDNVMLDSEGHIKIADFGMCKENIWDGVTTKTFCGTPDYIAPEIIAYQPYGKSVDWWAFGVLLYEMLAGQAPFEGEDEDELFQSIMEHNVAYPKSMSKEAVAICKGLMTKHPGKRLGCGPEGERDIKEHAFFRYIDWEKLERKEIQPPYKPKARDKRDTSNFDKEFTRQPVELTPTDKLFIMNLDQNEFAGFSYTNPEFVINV

On to `N=C(N)SCCCn1cc(C2=CC(=O)NC2=O)c2ccccc21`, for which the GI50 (in general, the concentration at which growth is held to half of that of the control) in the assay on MCF7 stood at 20 nM.

Consider `N=C(N)SCCCn1c(-c2cc3ccccc3s2)c(C2=CC(=O)NC2=O)c2ccccc21`, for which the GI50 is 20 nM with MCF7 and < 10 nM in the assay with MDA-N. Moreover, the results for the IC50 in assay [1] and in assay [2] were 3 nM and 10 nM, respectively.

As to `CN(C)CCCn1c(-c2cc3ccccc3s2)c(C2=CC(=O)NC2=O)c2ccccc21`, growth in the assay with MCF7 was halved (GI50) at 100 nM.
